# Measured values from patent publication US20220251116A1, “ALKYLBORONIC ACIDS AS ARGINASE INHIBITORS” (Guangdong Newopp Biopharmaceuticals Co., Ltd., priority 2019, published 2022).
# pIC50: −log10 of the molar value. Counter-ions that a name gives are not always drawn.
# Biological target: T1, recombinant human arginase 1 (Homo sapiens, UniProt P05089)
# T1 sequence (P05089 1-322): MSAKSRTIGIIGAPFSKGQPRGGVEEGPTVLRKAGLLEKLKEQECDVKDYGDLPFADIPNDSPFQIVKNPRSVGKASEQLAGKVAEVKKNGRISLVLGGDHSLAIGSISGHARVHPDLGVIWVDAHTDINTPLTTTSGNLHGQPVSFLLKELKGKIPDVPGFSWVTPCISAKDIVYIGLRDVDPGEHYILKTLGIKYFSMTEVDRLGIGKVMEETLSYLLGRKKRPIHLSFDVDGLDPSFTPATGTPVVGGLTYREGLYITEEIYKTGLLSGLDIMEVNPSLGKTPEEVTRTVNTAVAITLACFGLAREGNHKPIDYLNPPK
# Assay: Arginase inhibitory activity test, enzymatic assay based on urea measurement (Arg 1);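 further: enzyme incubated with L-arginine substrate and compound at 37 °C for 120 min, urea product detected colorimetrically by absorbance at 450 nm, background from wells lacking enzyme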
# Protocol: An enzymatic assay with recombinant human arginases 1 or 2 was used to measure inhibitory activity of the compounds. The assay is based on urea measurement, which is a product of L-arginine enzymatic degradation.
# Briefly, arginase and the substrate solution containing L-arginine were incubated in the absence or presence of varying concentrations of compounds at 37° C. for 120 min. For the background correction, only the substrate solution was added without arginase. The urea detection reagent from QuantiChrome™ Urea assay kit (BioAssay Systems, CA) was added to develop the color product. After 60 min at room temperature, the absorbance was measured at 450 nm with CLARIOstar (BMG LABTECH). Urea was used as the standard.
row,SMILES,pIC50
1,"CNS(=O)(=O)N1C[C@H](CCCB(O)O)[C@](N)(C(=O)O)C1 (racemic) [Example 2, (rac)trans-3-amino-4-(3-boronopropyl)-1-(N-methylsulfamoyl)pyrrolidine-3-carboxylic acid, (1:1) 2,2,2-trifluoroacetic acid salt]",5.00 to 6.00
2,"NC(=O)CNS(=O)(=O)N1C[C@H](CCCB(O)O)[C@](N)(C(=O)O)C1 (racemic) [Example 7, (rac)trans-3-amino-1-(N-(2-amino-2-oxoethyl)sulfamoyl)-4-(3-boronopropyl)pyrrolidine-3-carboxylic acid, (1:1) 2,2,2-trifluoroacetic acid salt]",5.00 to 6.00
3,"NCC(=O)NS(=O)(=O)N1C[C@H](CCCB(O)O)[C@](N)(C(=O)O)C1 (racemic) [Example 8, (rac)trans-3-amino-4-(3-boronopropyl)-1-(N-glycylsulfamoyl)pyrrolidine-3-carboxylic acid, (1:2) 2,2,2-trifluoroacetic acid salt]",6.00 to 7.00
4,"CC(C)(O)CNS(=O)(=O)N1C[C@H](CCCB(O)O)[C@](N)(C(=O)O)C1 (racemic) [Example 9, (rac)trans-3-amino-4-(3-boronopropyl)-1-(N-(2-hydroxy-2-methylpropyl)sulfamoyl)pyrrolidine-3-carboxylic acid, (1:1) 2,2,2-trifluoroacetic acid salt]",6.00 to 7.00
5,"N[C@@]1(C(=O)O)CN(S(=O)(=O)NCCO)C[C@@H]1CCCB(O)O (racemic) [Example 10, (rac)trans-3-amino-4-(3-boronopropyl)-1-(N-(2-hydroxyethyl)sulfamoyl)pyrrolidine-3-carboxylic acid (1:1), 2,2,2-trifluoroacetic acid salt]",6.00 to 7.00
6,"CC(C)C(NS(=O)(=O)N1CC(CCCB(O)O)C(N)(C(=O)O)C1)C(=O)O (racemic) [Example 11, (rac)trans-3-amino-4-(3-boronopropyl)-1-(N-((S)-1-carboxy-2-methylpropyl)sulfamoyl)pyrrolidine-3-carboxylic acid (diastereomer), (1:1) 2,2,2-trifluoroacetic acid salt]",5.00 to 6.00
7,"NCC1(NS(=O)(=O)N2C[C@H](CCCB(O)O)[C@](N)(C(=O)O)C2)CC1 (racemic) [Example 12, (rac)trans-3-amino-1-(N-(1-(aminomethyl)cyclopropyl)sulfamoyl)-4-(3-boronopropyl)pyrrolidine-3-carboxylic acid, (1:2) 2,2,2-trifluoroacetic acid salt]",> 7.00
8,"Nc1ccccc1NS(=O)(=O)N1C[C@H](CCCB(O)O)[C@](N)(C(=O)O)C1 (racemic) [Example 13, (rac)trans-3-amino-1-(N-(2-aminophenyl)sulfamoyl)-4-(3-boronopropyl)pyrrolidine-3-carboxylic acid, (1:2) 2,2,2-trifluoroacetic acid salt]",6.00 to 7.00
9,"N[C@@H]1C[C@H]1NS(=O)(=O)N1C[C@H](CCCB(O)O)[C@](N)(C(=O)O)C1 (racemic) [Example 15, (3R,4S)-3-amino-1-(N-((rac)trans-2-aminocyclopropyl)sulfamoyl)-4-(3-boronopropyl)pyrrolidine-3-carboxylic acid (diastereomers), (1:2) 2,2,2-trifluoroacetic acid salt]",> 7.00
10,"C[C@H](CN)NS(=O)(=O)N1C[C@H](CCCB(O)O)[C@](N)(C(=O)O)C1 (racemic) [Example 16, (rac)trans-3-amino-1-(N-((R)-1-aminopropan-2-yl)sulfamoyl)-4-(3-boronopropyl)pyrrolidine-3-carboxylic acid (diastereomers), 2,2,2-trifluoroacetic acid salt (1:2)]",> 7.00
11,"C[C@@H](N)CNS(=O)(=O)N1C[C@H](CCCB(O)O)[C@](N)(C(=O)O)C1 (racemic) [Example 17, (rac)trans-3-amino-1-(N-((R)-2-aminopropyl)sulfamoyl)-4-(3-boronopropyl)pyrrolidine-3-carboxylic acid (diastereomers), 2,2,2-trifluoroacetic acid salt (1:2) (Diasteromers)]",> 7.00
12,"NC1(CNS(=O)(=O)N2C[C@H](CCCB(O)O)[C@](N)(C(=O)O)C2)CC1 (racemic) [Example 19, (rac)-(trans)3-amino-1-(N-((1-aminocyclopropyl)methyl)sulfamoyl)-4-(3-boronopropyl)pyrrolidine-3-carboxylic acid, 2,2,2-trifluoroacetic acid salt (1:2)]",6.00 to 7.00
13,"N[C@@H]1CCCCC1NS(=O)(=O)N1C[C@H](CCCB(O)O)[C@](N)(C(=O)O)C1 (mixture of isomers) [Example 20, (rac)trans-3-amino-1-(N-((rac)cis-2-aminocyclohexyl)sulfamoyl)-4-(3-boronopropyl)pyrrolidine-3-carboxylic acid (diastereomers), 2,2,2-trifluoroacetic acid salt (1:2)]",< 5.00
14,"NCCCNS(=O)(=O)N1C[C@H](CCCB(O)O)[C@](N)(C(=O)O)C1 (racemic) [Example 21, (rac)-trans-3-amino-1-(N-(3-aminopropyl)sulfamoyl)-4-(3-boronopropyl)pyrrolidine-3-carboxylic acid (diastereomers), 2,2,2-trifluoroacetic acid salt (1:2)]",6.00 to 7.00
15,"N[C@H]1CCCCC1NS(=O)(=O)N1C[C@H](CCCB(O)O)[C@](N)(C(=O)O)C1 (mixture of isomers) [Example 22, (rac)-trans-3-amino-1-(N-(trans-2-aminocyclohexyl)sulfamoyl)-4-(3-boronopropyl)pyrrolidine-3-carboxylic acid (diastereomers), 2,2,2-trifluoroacetic acid salt (1:2)]",6.00 to 7.00
16,"N[C@H]1COCC1NS(=O)(=O)N1C[C@H](CCCB(O)O)[C@](N)(C(=O)O)C1 (mixture of isomers) [Example 23, (rac)-trans-3-amino-1-(N-((rac)cis-4-aminotetrahydrofuran-3-yl)sulfamoyl)-4-(3-boronopropyl)pyrrolidine-3-carboxylic acid (diastereomers), 2,2,2-trifluoroacetic acid salt (1:2)]",6.00 to 7.00
17,"NC1CC(NS(=O)(=O)N2C[C@H](CCCB(O)O)[C@](N)(C(=O)O)C2)C1 (mixture of isomers) [Example 24, (rac)-trans-3-amino-1-(N-((rac)trans-3-aminocyclobutyl)sulfamoyl)-4-(3-boronopropyl)pyrrolidine-3-carboxylic acid compound with 2,2,2-trifluoroacetic acid (1:2)]",> 7.00
18,"NC1CN(S(=O)(=O)N2C[C@H](CCCB(O)O)[C@](N)(C(=O)O)C2)C1 (racemic) [Example 33, (rac)-trans-3-amino-1-((3-aminoazetidin-1-yl)sulfonyl)-4-(3-boronopropyl)pyrrolidine-3-carboxylic acid, 2,2,2-trifluoroacetic acid salt (1:2)]",6.00 to 7.00

# Results, then the compound that gave them:
row,pIC50,SMILES
1,> 7.00,"N[C@@]1(C(=O)O)CN(S(=O)(=O)NC2CNC2)C[C@@H]1CCCB(O)O (racemic) [Example 34, (rac)-trans-3-amino-1-(N-(azetidin-3-yl)sulfamoyl)-4-(3-boronopropyl)pyrrolidine-3-carboxylic acid, 2,2,2-trifluoroacetic acid salt (1:2)]"
2,6.00 to 7.00,"C[C@@H](N)C(=O)NS(=O)(=O)N1C[C@H](CCCB(O)O)[C@](N)(C(=O)O)C1 (racemic) [Example 35, (rac)-trans-1-(N-alanylsulfamoyl)-3-amino-4-(3-boronopropyl)pyrrolidine-3-carboxylic acid, 2,2,2-trifluoroacetic acid salt (1:2)]"
3,> 7.00,CC1(C)[C@H]2C[C@@H]3OB(CCC[C@H]4CN(S(=O)(=O)NCCN)C[C@@]4(N)C(=O)O)O[C@]3(C)[C@@H]1C2 (racemic) [Example 36]
4,6.00 to 7.00,"N=C(NC(=O)CN)N1C[C@H](CCCB(O)O)[C@](N)(C(=O)O)C1 (racemic) [Example 38, rac-(trans)-3-amino-4-(3-boronopropyl)-1-(N-glycylcarbamimidoyl)pyrrolidine-3-carboxylic acid, 2,2,2-trifluoroacetic acid salt (1:2)]"
5,6.00 to 7.00,"NC1(CNS(=O)(=O)N2C[C@H](CCCB(O)O)[C@](N)(C(=O)O)C2)COC1 (racemic) [Example 39, (rac)-trans-3-amino-1-(N-((3-aminooxetan-3-yl)methyl)sulfamoyl)-4-(3-boronopropyl)pyrrolidine-3-carboxylic acid, 2,2,2-trifluoroacetic acid salt (1:2)]"
6,6.00 to 7.00,"NC1COCC1NS(=O)(=O)N1CC(CCCB(O)O)C(N)(C(=O)O)C1 (racemic) [Example 41, (rac)-trans-3-amino-1-(N-((trans)-4-aminotetrahydrofuran-3-yl)sulfamoyl)-4-(3-boronopropyl)pyrrolidine-3-carboxylic acid, 2,2,2-trifluoroacetic acid salt (1:2)]"
7,> 7.00,"CN(C1CNC1)S(=O)(=O)N1C[C@H](CCCB(O)O)[C@](N)(C(=O)O)C1 (racemic) [Example 42, (rac)-trans-3-amino-1-(N-(azetidin-3-yl)-N-methylsulfamoyl)-4-(3-boronopropyl)pyrrolidine-3-carboxylic acid, 2,2,2-trifluoroacetic acid salt (1:2)]"
8,6.00 to 7.00,"CC1(NS(=O)(=O)N2C[C@H](CCCB(O)O)[C@](N)(C(=O)O)C2)CNC1 (racemic) [Example 43, (rac)-trans-3-amino-4-(3-boronopropyl)-1-(N-(3-methylazetidin-3-yl)sulfamoyl)pyrrolidine-3-carboxylic acid, 2,2,2-trifluoroacetic acid salt (1:2)]"
9,6.00 to 7.00,"CN1CCN(S(=O)(=O)N2C[C@H](CCCB(O)O)[C@](N)(C(=O)O)C2)CC1 (racemic) [Example 44, (racemic)-trans-3-amino-4-(3-boronopropyl)-1-((4-methylpiperazin-1-yl)sulfonyl)pyrrolidine-3-carboxylic acid, 2,2,2-trifluoroacetic acid salt (1:2)]"
